Data taken from patent publication US6743817B2, “Substituted fused pyrroleimines and pyrazoleimines” (Neurogen Corporation, priority 2000, dated 2004).

- melting point: 259 to 261 °C (dec.)
Compound: COc1ccc(NC(=O)c2n[nH]c3c2C(=NC(C)C)CCC3)cc1F
